Data from US5221665A, “N-substituted amides” (Boehringer Ingelheim Pharmaceuticals, Inc., priority 1991, dated 1993).
Values after ≈ are worked out from the molar mass of the structure shown.

How the values were obtained:
[1] = target: T1, Human sputum elastase (HSE) / Human Leukocyte Elastase (HLE) (Homo sapiens, UniProt P08246); experiment: Elastase Inhibition--In Vitro Method (hydrolysis of MeO-Suc-Ala-Ala-Pro-Val-pNA, microtiter format); format: biochemical; conditions: for % inhib. (5 ug/mL) 0% HSA / % inhib. (5 ug/mL) 0.5% HSA: 5 ug/mL compound; for % inhib. (5 ug/mL) 0.5% HSA: 0.5% HSA added; for IC50: Table I, 0.5 mM substrate, 15 minutes pre-incubation
T1 construct: Human sputum elastase (HSE ) (Elasten Products Co., Pacific, Mo.); purchased Elasten Products Co., Pacific, Mo; host or cells: human sputum
T1 sequence (P08246 30-267): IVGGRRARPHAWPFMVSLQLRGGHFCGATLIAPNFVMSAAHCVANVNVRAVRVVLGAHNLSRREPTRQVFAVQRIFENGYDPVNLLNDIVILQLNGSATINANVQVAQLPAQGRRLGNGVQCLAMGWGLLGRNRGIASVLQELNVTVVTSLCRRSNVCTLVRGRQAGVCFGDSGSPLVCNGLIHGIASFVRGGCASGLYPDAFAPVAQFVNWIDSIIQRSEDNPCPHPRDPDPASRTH

[2] = target: T2, human neutrophil elastase (HNE) (Homo sapiens, UniProt P08246); experiment: Elastase Inhibition--Animal Model (acute hamster hemorrhage model, HNE instilled i.t.); format: in vivo, Syrian Golden Hamsters; conditions: compound 20 ug i.t. three to five minutes before 50 μg HNE i.t., lung lavage hemorrhage at 18 hours
T2 construct: purified preparations of human neutrophil elastase (HNE); purchased Elastin Products Co., Pacific, MO
T2 sequence (P08246 30-247 limits assumed): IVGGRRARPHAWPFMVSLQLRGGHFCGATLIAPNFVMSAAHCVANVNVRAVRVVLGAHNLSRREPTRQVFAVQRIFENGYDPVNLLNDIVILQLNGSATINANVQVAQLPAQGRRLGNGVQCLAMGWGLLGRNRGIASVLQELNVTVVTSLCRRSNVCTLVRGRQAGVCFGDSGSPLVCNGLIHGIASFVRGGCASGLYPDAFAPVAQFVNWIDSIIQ
Description: When instilled into the lungs of hamsters, purified preparations of human neutrophil elastase (HNE) will produce an emphysema like state. Acute challenge (18 hours) with 50 μg of HNE results in pulmonary hemorrhage which can be readily quantitated by measuring total RBC's (red blood count) and hemogloblin concentration of lung lavage samples.
HNE (obtained from Elastin Products Co., Pacific, MO) was diluted to 250 μg/mL in 0.9% sterile saline. Syrian Golden Hamsters, males, weighing approximately 90-130 grams, were obtained from Charles River Laboratories. The experiments described below are conducted using at least three animals per group.
Anesthesia required for the intratracheal administration of compounds and elastase was induced by the i.p. injection of Ketamine hydrochloride, 10 mg/100 gram body weight plus Xylazine, 1 mg/100 gram body weight.
Hamsters were anesthetized as described above and the trachea were surgically exposed. Test compounds were administered via 27g needle inserted directly into the trachea in 0.1 mL volume followed by 0.1 mL saline push. […]
Samples were concentrated by centrifugation (1500 rpm, 10 minutes) and brought up to 1.0 mL in saline. Homoglobin concentration was determined spectrophotometrically (540 nm) by the cyanmethemoglobin method using 200 μL sample to 2.5 mL cranmethoglobin reagent (Data Medical Associates, Arlington, Tx.).

Row | % inhib. (5 ug/mL) 0% HSA [1] [%] | % inhib. (5 ug/mL) 0.5% HSA [1] [%] | IC50 [1] [mg/L] | % inhib. (20 ug, i.t.) [2] [%] | Compound
1 | 95.1 | 87.8 | 0.432 (≈ 0.693 µM) | – | COc1ccc(CCN(CC(=O)NC(C(=O)C(F)(F)F)C(C)C)C(=O)[C@@H](NC(=O)OCc2ccccc2)C(C)C)cc1OC (some centres unmarked) [3,4-Dimethoxyphenethyl; CBZ]
2 | 100 | 99.4 | 0.082 (≈ 0.155 µM) | – | CC(C)C(NC(=O)CN(C(=O)[C@@H](NC(=O)OCc1ccccc1)C(C)C)C1CCCC1)C(=O)C(F)(F)F (some centres unmarked) [Cyclopentyl; CBZ]
3 | 99.8 | 99.5 | 0.045 (≈ 0.0607 µM) | 93.8 | CC(C)C(NC(=O)CN(C(=O)[C@@H](NC(=O)c1ccc(C(=O)NS(=O)(=O)c2ccc(Cl)cc2)cc1)C(C)C)C1CC2CCC1C2)C(=O)C(F)(F)F (stereo partly drawn) [[[4-(4-Chlorophenyl)sulfonylaminocarbonyl]phenyl-1-oxomethyl]-L-Valyl-N-(exo-bicyclo[2,2,1]hept-2-yl)-glycyl-N-[3-(1,1,1-trifluoro-4-methyl-2-oxypentyl)] amide.]
4 | 98.8 | 96.3 | 0.0838 (≈ 0.103 µM) | 90.2 | COc1ccc(CCN(CC(=O)NC(C(=O)C(F)(F)F)C(C)C)C(=O)[C@@H](NC(=O)c2ccc(C(=O)NS(=O)(=O)c3ccc(Cl)cc3)cc2)C(C)C)cc1OC (stereo partly drawn) [[[4-(4-Chlorophenylsulfonylaminocarbonyl]phenyl-1-oxomethyl]-L-Valyl-N-2-(3 , 4-dimethoxy)phenethyl] glycyl-N-[3-(1,1,1-trifluoro-4-methyl-2-oxypentyl)] amide]
